The source made the active and inactive calls. No rule for the calls is given here.
Test system: CCRIS mutagenicity, Ames/micronucleus/aberration tests
Test: CCRIS mutagenicity studies

How did the mutagenic call (End Point: IN VITRO CHROMOSOMAL ABERRATIONS, Test System: CHO CELLS, Metabolic Activation: NONE) turn out when `O=[N+]([O-])c1ccc(O)c([N+](=O)[O-])c1` was run?
The mutagenic call was “active; positive”.

What about the mutagenic call (End Point: IN VITRO CHROMOSOMAL ABERRATIONS, Test System: HUMAN PERIPHERAL LYMPHOCYTES, Metabolic Activation: NONE) of the same compound?
Its mutagenic call is “active; positive”.

And the mutagenic call (End Point: IN VITRO CHROMOSOMAL ABERRATIONS, Test System: TK6 HUMAN LYMPHOBLASTS, Metabolic Activation: NONE)?
Its mutagenic call is “inactive; negative”.

What about the mutagenic call (End Point: In vitro micronucleus, Test System: Mouse lymphoma L5178Y cells, Metabolic Activation: None) of the same compound?
Its mutagenic call is “active; positive”.

And the mutagenic call (Test System: AMES SALMONELLA TYPHIMURIUM, Strain/Indicator: TA97, Metabolic Activation: HAMSTER, LIVER, S-9, AROCLOR 1254 (10%), Method: PREINCUBATION)?
The mutagenic call was “inactive; negative”.

And the mutagenic call (Test System: AMES SALMONELLA TYPHIMURIUM, Strain/Indicator: TA97, Metabolic Activation: HAMSTER, LIVER, S-9, AROCLOR 1254 (30%), Method: PREINCUBATION)?
Its mutagenic call is “inactive; negative”.

And the mutagenic call (Test System: AMES SALMONELLA TYPHIMURIUM, Strain/Indicator: TA97, Metabolic Activation: NONE, Method: PREINCUBATION)?
The mutagenic call was “inactive; negative”.

And the mutagenic call (Test System: AMES SALMONELLA TYPHIMURIUM, Strain/Indicator: TA97, Metabolic Activation: RAT, LIVER, S-9, AROCLOR 1254 (10%), Method: PREINCUBATION)?
Its mutagenic call is “inactive; negative”.

What about the mutagenic call (Test System: AMES SALMONELLA TYPHIMURIUM, Strain/Indicator: TA97, Metabolic Activation: RAT, LIVER, S-9, AROCLOR 1254 (30%), Method: PREINCUBATION) of the same compound?
The mutagenic call was “inactive; negative”.

What about the mutagenic call (Test System: AMES SALMONELLA TYPHIMURIUM, Strain/Indicator: TA98, Metabolic Activation: HAMSTER, LIVER, S-9, AROCLOR 1254 (10%), Method: PREINCUBATION) of the same compound?
Its mutagenic call is “inactive; negative”.

What about the mutagenic call (Test System: AMES SALMONELLA TYPHIMURIUM, Strain/Indicator: TA98, Metabolic Activation: HAMSTER, LIVER, S-9, AROCLOR 1254 (30%), Method: PREINCUBATION) of the same compound?
Its mutagenic call is “inactive; negative”.

What about the mutagenic call (Test System: AMES SALMONELLA TYPHIMURIUM, Strain/Indicator: TA98, Metabolic Activation: NONE, Method: PREINCUBATION) of the same compound?
The mutagenic call was “inactive; negative”.

And the mutagenic call (Test System: AMES SALMONELLA TYPHIMURIUM, Strain/Indicator: TA98, Metabolic Activation: RAT, LIVER, S-9, AROCLOR 1254 (10%), Method: PREINCUBATION)?
Its mutagenic call is “inactive; negative”.

What about the mutagenic call (Test System: AMES SALMONELLA TYPHIMURIUM, Strain/Indicator: TA98, Metabolic Activation: RAT, LIVER, S-9, AROCLOR 1254 (30%), Method: PREINCUBATION) of the same compound?
The mutagenic call was “inactive; negative”.

And the mutagenic call (Test System: AMES SALMONELLA TYPHIMURIUM, Strain/Indicator: TA98, Metabolic Activation: RAT, LIVER, S-9, KANECHLOR 500, Method: PREINCUBATION)?
Its mutagenic call is “inactive; negative”.

And the mutagenic call (Test System: AMES SALMONELLA TYPHIMURIUM, Strain/Indicator: TA98, Metabolic Activation: RAT, LIVER, S-9, PHENOBARBITAL AND BETA-NAPHTHOFLAVONE, Method: PREINCUBATION)?
Its mutagenic call is “inactive; negative”.

What about the mutagenic call (Test System: AMES SALMONELLA TYPHIMURIUM, Strain/Indicator: TA100, Metabolic Activation: HAMSTER, LIVER, S-9, AROCLOR 1254 (10%), Method: PREINCUBATION) of the same compound?
Its mutagenic call is “inactive; negative”.

And the mutagenic call (Test System: AMES SALMONELLA TYPHIMURIUM, Strain/Indicator: TA100, Metabolic Activation: HAMSTER, LIVER, S-9, AROCLOR 1254 (30%), Method: PREINCUBATION)?
Its mutagenic call is “inactive; negative”.

What about the mutagenic call (Test System: AMES SALMONELLA TYPHIMURIUM, Strain/Indicator: TA100, Metabolic Activation: NONE, Method: PREINCUBATION) of the same compound?
The mutagenic call was “inactive; negative”.

What about the mutagenic call (Test System: AMES SALMONELLA TYPHIMURIUM, Strain/Indicator: TA100, Metabolic Activation: RAT, LIVER, S-9, AROCLOR 1254 (10%), Method: PREINCUBATION) of the same compound?
Its mutagenic call is “inactive; negative”.

What about the mutagenic call (Test System: AMES SALMONELLA TYPHIMURIUM, Strain/Indicator: TA100, Metabolic Activation: RAT, LIVER, S-9, AROCLOR 1254 (30%), Method: PREINCUBATION) of the same compound?
Its mutagenic call is “inactive; negative”.

What about the mutagenic call (Test System: AMES SALMONELLA TYPHIMURIUM, Strain/Indicator: TA100, Metabolic Activation: RAT, LIVER, S-9, KANECHLOR 500, Method: PREINCUBATION) of the same compound?
The mutagenic call was “inactive; negative”.

And the mutagenic call (Test System: AMES SALMONELLA TYPHIMURIUM, Strain/Indicator: TA100, Metabolic Activation: RAT, LIVER, S-9, PHENOBARBITAL AND BETA-NAPHTHOFLAVONE, Method: PREINCUBATION)?
Its mutagenic call is “inactive; negative”.

What about the mutagenic call (Test System: AMES SALMONELLA TYPHIMURIUM, Strain/Indicator: TA102, Metabolic Activation: NONE, Method: PREINCUBATION) of the same compound?
Its mutagenic call is “inactive; negative”.

What about the mutagenic call (Test System: AMES SALMONELLA TYPHIMURIUM, Strain/Indicator: TA102, Metabolic Activation: RAT, LIVER, S-9, PHENOBARBITAL AND BETA-NAPHTHOFLAVONE, Method: PREINCUBATION) of the same compound?
The mutagenic call was “inactive; negative”.

What about the mutagenic call (Test System: AMES SALMONELLA TYPHIMURIUM, Strain/Indicator: TA104, Metabolic Activation: NONE, Method: PREINCUBATION) of the same compound?
Its mutagenic call is “inactive; negative”.

What about the mutagenic call (Test System: AMES SALMONELLA TYPHIMURIUM, Strain/Indicator: TA104, Metabolic Activation: RAT, LIVER, S-9, PHENOBARBITAL AND BETA-NAPHTHOFLAVONE, Method: PREINCUBATION) of the same compound?
Its mutagenic call is “inactive; negative”.

And the mutagenic call (Test System: AMES SALMONELLA TYPHIMURIUM, Strain/Indicator: TA1535, Metabolic Activation: HAMSTER, LIVER, S-9, AROCLOR 1254 (10%), Method: PREINCUBATION)?
Its mutagenic call is “inactive; negative”.

What about the mutagenic call (Test System: AMES SALMONELLA TYPHIMURIUM, Strain/Indicator: TA1535, Metabolic Activation: HAMSTER, LIVER, S-9, AROCLOR 1254 (30%), Method: PREINCUBATION) of the same compound?
The mutagenic call was “inactive; negative”.

And the mutagenic call (Test System: AMES SALMONELLA TYPHIMURIUM, Strain/Indicator: TA1535, Metabolic Activation: RAT, LIVER, S-9, AROCLOR 1254 (10%), Method: PREINCUBATION)?
The mutagenic call was “inactive; negative”.

And the mutagenic call (Test System: AMES SALMONELLA TYPHIMURIUM, Strain/Indicator: TA1535, Metabolic Activation: RAT, LIVER, S-9, AROCLOR 1254 (30%), Method: PREINCUBATION)?
The mutagenic call was “inactive; negative”.

And the mutagenic call (Test System: AMES SALMONELLA TYPHIMURIUM, Strain/Indicator: TA1535, Metabolic Activation: RAT, LIVER, S-9, PHENOBARBITAL AND BETA-NAPHTHOFLAVONE, Method: PREINCUBATION)?
The mutagenic call was “inactive; negative”.

What about the mutagenic call (Test System: AMES SALMONELLA TYPHIMURIUM, Strain/Indicator: TA1537, Metabolic Activation: HAMSTER, LIVER, S-9, AROCLOR 1254 (30%), Method: PREINCUBATION) of the same compound?
The mutagenic call was “inactive; negative”.

And the mutagenic call (Test System: AMES SALMONELLA TYPHIMURIUM, Strain/Indicator: TA1537, Metabolic Activation: NONE, Method: PREINCUBATION)?
The mutagenic call was “inactive; negative”.

And the mutagenic call (Test System: AMES SALMONELLA TYPHIMURIUM, Strain/Indicator: TA1537, Metabolic Activation: RAT, LIVER, S-9, AROCLOR 1254 (30%), Method: PREINCUBATION)?
Its mutagenic call is “inactive; negative”.

And the mutagenic call (Test System: AMES SALMONELLA TYPHIMURIUM, Strain/Indicator: TA1537, Metabolic Activation: RAT, LIVER, S-9, PHENOBARBITAL AND BETA-NAPHTHOFLAVONE, Method: PREINCUBATION)?
The mutagenic call was “inactive; negative”.

What about the mutagenic call (Test System: E. COLI, Strain/Indicator: WP2UVRA/PKM101, Metabolic Activation: NONE, Method: PREINCUBATION) of the same compound?
Its mutagenic call is “inactive; negative”.

And the mutagenic call (Test System: E. COLI, Strain/Indicator: WP2UVRA/PKM101, Metabolic Activation: RAT, LIVER, S-9, PHENOBARBITAL AND BETA-NAPHTHOFLAVONE, Method: PREINCUBATION)?
The mutagenic call was “inactive; negative”.

And the mutagenic call (Test System: E. COLI, Strain/Indicator: WP2UVRA, Metabolic Activation: NONE, Method: PREINCUBATION)?
Its mutagenic call is “inactive; negative”.

And the mutagenic call (Test System: E. COLI, Strain/Indicator: WP2UVRA, Metabolic Activation: RAT, LIVER, S-9, PHENOBARBITAL AND BETA-NAPHTHOFLAVONE, Method: PREINCUBATION)?
Its mutagenic call is “inactive; negative”.

And the mutagenic call (Test System: Mouse lymphoma, Strain/Indicator: L5178Y (tk+/tk-)/Trifluorothymidine, Metabolic Activation: None, Method: Microtiter)?
The mutagenic call was “active; positive”.
